One assay has as its target T1, O‐Mad2^∆C10 (Homo sapiens, UniProt Q13257).
T1 construct: His6-DoubleStrep-TEV (N); made in house
Put plainly: NMR titration / HSQC: Cdc20^MIM with O-Mad2^∆C10 (trapped open state). Type of assay: binding. As to conditions: 25°C; for binding to Mad2^∆C10: NMR titration / HSQC, two-fold molar excess of peptide, spectra within 15 minutes (Figure S6). The text has this:
(§1) The cloning of human wild‐type Mad2 and the mutant Mad2^R133A by the USER® method (NEB) into the pRSFDuet‐1 vector (71341‐3, Sigma‐Aldrich) with a His6‐DoubleStrep‐TEV tag at its N‐terminus was described previously (Fischer et al., [2022]). For this study, Mad2 mutants were generated as follows. The Mad2^LL expression construct was generated from the wild‐type Mad2 expression vector (Fischer et al., [2022]) by replacing residues 109–117 (TAKDDSAPR) with GSG. Mad2^ΔC10 and Mad2^Δβ7/β8 were modified from wild‐type Mad2 expression construct by deleting residues 196–205 and 166–205, respectively. Mad2^LL/R133A was modified by substituting Ala for Arg133 from the Mad2^LL expression construct. Mad2^LL/ΔC10 was modified from Mad2^LL by deleting residues 196–205. Mad2^L13A/R133A was generated from the Mad2^R133A mutant. Site‐directed mutagenesis of Mad2 was completed using the QuikChangeTM Lightning Site‐Directed Mutagenesis Kit (Agilent) developed by Stratagene Inc. (La Jolla, CA).
All NMR data on Mad2 were acquired in a 5 mm tube at 25°C in 20 mM HEPES, pH 7.0, 100 mM NaCl, 1 mM TCEP, 5% D2O. Backbone assignment experiments and all spectra, unless otherwise denoted, were collected using an in‐house Bruker 800 MHz Avance III spectrometer, equipped with a triple resonance TCI CryoProbe. 2D spectra were acquired using BEST ^1H,^15N‐TROSY HSQC, with 16 scans and a recycle delay of 400 ms, giving an experimental time of 12 min per spectrum. A Bruker 950 MHz Avance III spectrometer (MRC Biomedical NMR Centre, Francis Crick Institute) was used for the residue conversion rate analysis and the characterization of Mad2 dimers. Most experiments, including all backbone experiments, were acquired with 100 μM samples; the residue‐specific conversion rate analysis and characterization of Mad2 dimers utilized 200 μM samples and 300 μM samples, respectively.
(§2) Mad2LL (grey), Mad2∆C10 (green) and Mad2LL/∆C10 (purple). […] 15N{1H}‐ heteronuclear NOE were measured at 298 K. Regions that are highly dynamic are highlighted in yellow. e. […]

The next assay deals with T2, O‐Mad2^LL (Homo sapiens, UniProt Q13257, A115G/DEL109-114/P116S/R117G).
T2 construct: His6-DoubleStrep-TEV (N); made in house
Description: Time-resolved NMR: conversion / binding with O-Mad2^LL (loop-less). Type of assay: biochemical. As to conditions: two-fold molar excess peptide, 25°C. How it is done:
FIGURE 5 The dynamic β5‐αC loop and C‐terminal residues in O‐Mad2 modulate Mad2 conversion. The O‐ to C‐Mad2 conversion is slowed when the highly dynamic β5‐αC loop is truncated (O‐Mad2^LL) and eliminated in the absence of the C‐terminal ten residues (O‐Mad2^∆C10). Using the side chain resonances of Trp75 and Trp167 as reporters, Mad2 conversion was traced in a 24 h time course at 25°C. Cdc20^MIM‐111‐138 peptides were added at two‐fold molar excess to Mad2 (100 μM). Severe line broadening was observed during the conversion of O‐Mad2^LL, most likely due to dimerization of O‐Mad2^LL with the newly converted C‐Mad2^LL. NMR data for O‐Mad2^R133A with Cdc20^MIM‐111‐138 shown for comparison are from Fischer et al. ([2022]).
as §1
All peptides were synthesized by Cambridge Research Biochemicals, UK. Peptides were dialyzed into 20 mM HEPES, pH 7.0, 100 mM NaCl, and 1 mM TCEP for NMR experiments. […]
as §2

Residues, ends and D or L forms follow the SMILES beside them.

T1 sequence (Q13257 1-195): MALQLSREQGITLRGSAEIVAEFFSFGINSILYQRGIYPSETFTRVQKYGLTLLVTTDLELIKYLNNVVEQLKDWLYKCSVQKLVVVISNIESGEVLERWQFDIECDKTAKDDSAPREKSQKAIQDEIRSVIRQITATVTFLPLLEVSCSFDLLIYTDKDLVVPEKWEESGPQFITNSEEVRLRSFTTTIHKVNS
T2 sequence (Q13257 with tags, fused parts or gaps DEL109-114/A115G/P116S/R117G): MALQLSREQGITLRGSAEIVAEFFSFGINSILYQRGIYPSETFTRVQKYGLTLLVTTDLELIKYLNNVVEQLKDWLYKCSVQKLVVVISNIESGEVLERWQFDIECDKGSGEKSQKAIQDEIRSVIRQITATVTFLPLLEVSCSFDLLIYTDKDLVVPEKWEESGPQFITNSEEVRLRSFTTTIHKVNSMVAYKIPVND

Consider `CC[C@H](C)[C@H](NC(=O)[C@H](CCCCN)NC(=O)[C@H](C)NC(=O)[C@H](CCC(=O)O)NC(=O)[C@H](CCC(=O)O)NC(=O)[C@@H](NC(=O)[C@H](CC(=O)O)NC(=O)[C@@H](N)Cc1ccccc1)C(C)C)C(=O)N[C@@H](CC(C)C)C(=O)N[C@@H](CCCNC(=N)N)C(=O)N[C@@H](CC(C)C)C(=O)N[C@@H](CO)C(=O)NCC(=O)N[C@@H](CCCCN)C(=O)N1CCC[C@H]1C(=O)N[C@@H](CCC(N)=O)C(=O)N[C@@H](CC(N)=O)C(=O)N[C@@H](C)C(=O)N1CCC[C@H]1C(=O)N[C@@H](CCC(=O)O)C(=O)NCC(=O)N[C@@H](Cc1ccc(O)cc1)C(=O)N[C@@H](CCC(N)=O)C(=O)N[C@@H](CC(N)=O)C(=O)N[C@@H](CCCNC(=N)N)C(=O)N[C@@H](CC(C)C)C(=O)N[C@@H](CCCCN)C(=O)N[C@H](C(=O)N[C@@H](CC(C)C)C(=O)N[C@@H](Cc1ccc(O)cc1)C(=O)O)C(C)C` [Cdc20^MIM‐123‐152] (H-FDVEEAKILRLSGKPQNAPEGYQNRLKVLY-OH; N-terminus and C-terminus assumed), for which the “binding to Mad2^∆C10” value on O‐Mad2^∆C10 is “No binding”.

For the compound “EHQKAWALNLNGFDVEEAKILRLSGKPQ [Cdc20^MIM‐111‐138, Cdc20^MIM peptide spanning Cdc20 residues 111–138]”, at O‐Mad2^LL (HSQC, spectra collected within 15 min), the “binding to Mad2^LL, early spectra” value is recorded as “no binding”. Also, on O‐Mad2^LL (O-Mad2^LL 100 μM), the “slowing of conversion relative to O-Mad2^R133A with Cdc20^MIM-111-138” value was 8 times. For the same compound, at O‐Mad2^LL (O-Mad2^LL 100 μM, Trp75/Trp167 reporters), the “time for conversion of O-Mad2^LL to C-Mad2^LL:Cdc20^MIM” value is listed as ~ 250 min. Also, at O‐Mad2^∆C10, the “binding to Mad2^∆C10” value is given as “No binding”. Besides, the “O- to C-Mad2 conversion, in words” value at O‐Mad2^∆C10 (O-Mad2^∆C10 100 μM, two-fold molar excess peptide, 24 h time course) is recorded as “eliminated”.

These data come from PMC11947619, “Molecular mechanism of Mad2 conformational conversion promoted by the Mad2‐interaction motif of Cdc20” (Protein Science : A Publication of the Protein Society, 2025).
